According to the NIST ThermoML archive (doi:10.1016/j.fluid.2018.08.017):

Tests used:
[1] = refractive index (Na D-line) (dimensionless); conditions: 101.33 kPa, Liquid, Standard Abbe refractometry
[2] = Liquid; for speed of sound: Single path-length method; for mass density: Vibrating tube method
[3] = wn = mass fraction of the nth substance listed; conditions: 101 kPa, Liquid, w1 = 1; for speed of sound: Single path-length method; for mass density: Vibrating tube method

CCCCn1cc[n+](C)c1.F[B-](F)(F)F [1-butyl-3-methylimidazolium tetrafluoroborate]
Conditions	refractive index
[1], 293.15 K	1.423

[2]
Conditions	mass density, 101 kPa [kg/m3]	mass density, 101.33 kPa [kg/m3]	speed of sound, 101 kPa [m/s]	viscosity, 101 kPa [mPa·s]
293.15 K	1206	–	1576.7	129.34
298.15 K	1202.4	–	1564.7	98.95
303.15 K	1198.8	–	1552.8	77
308.15 K	1195.2	–	1541.2	60.9
313.15 K	1191.7	–	1529.6	49.2
318.15 K	1188.1	1188.2	1518.2	40.27
323.15 K	1184.6	–	1506.9	33.44
328.15 K	1181.1	–	1495.7	28.12
333.15 K	1177.6	–	1484.5	23.94
338.15 K	1174.2	–	1473.2	20.62
343.15 K	1170.7	–	1461.7	17.92

CCCCn1cc[n+](C)c1.F[B-](F)(F)F [1-butyl-3-methylimidazolium tetrafluoroborate] + CN1CCCC1=O
[3]
Conditions	mass density [kg/m3]	speed of sound [m/s]	viscosity [mPa·s]
293.15 K	1206	1576.7	129.34
298.15 K	1202.4	1564.7	98.95
303.15 K	1198.8	1552.8	77
308.15 K	1195.2	1541.2	60.9
313.15 K	1191.7	1529.6	49.2
318.15 K	1188.1	1518.2	40.27
323.15 K	1184.6	1506.9	33.44
328.15 K	1181.1	1495.7	28.12
333.15 K	1177.6	1484.5	23.94
338.15 K	1174.2	1473.2	20.62
343.15 K	1170.7	1461.7	17.92

CN1CCCC1=O [N-methylpyrrolidone]
Conditions	refractive index
[1], 298.15 K	1.469

[2], 101 kPa
Conditions	mass density [kg/m3]	speed of sound [m/s]	viscosity [mPa·s]
293.15 K	1034.1	1565.7	1.786
298.15 K	1029.7	1546.1	1.693
303.15 K	1025.2	1526.7	1.564
308.15 K	1020.8	1507.5	1.448
313.15 K	1016.3	1488.3	1.346
318.15 K	1011.9	1469.2	1.258
323.15 K	1007.4	1450.4	1.176
328.15 K	1002.9	1431.4	1.103
333.15 K	998.4	1412.8	1.037
338.15 K	993.9	1394.4	0.9769
343.15 K	989.4	1376	0.923

CCCCCC [hexane]
Conditions	refractive index
[1], 298.15 K	1.372

Conditions	mass density [kg/m3]
[2], 313.15 K, 101.33 kPa	641.2
